From ChEMBL document CHEMBL1137502, “Design and evaluation of analogues of the bacterial cell-wall peptidoglycan motif L-Lys-D-Ala-D-Ala for use in a vancomycin biosensor” (2007)

Tested on: Staphylococcus aureus
Experiment: Antibacterial activity against Staphylococcus aureus ATCC 25923 assessed as reduction of bacterial count by broth microdilution method
Format: functional

CN[C@H](CC(C)C)C(=O)N[C@H]1C(=O)N[C@@H](CC(N)=O)C(=O)N[C@H]2C(=O)N[C@H]3C(=O)N[C@H](C(=O)N[C@H](C(=O)O)c4cc(O)cc(O)c4-c4cc3ccc4O)[C@H](O)c3ccc(c(Cl)c3)Oc3cc2cc(c3O[C@@H]2O[C@H](CO)[C@@H](O)[C@H](O)[C@H]2O[C@H]2C[C@](C)(N)[C@H](O)[C@H](C)O2)Oc2ccc(cc2Cl)[C@H]1O [VANCOMYCIN]
Log10 cfu: 1
